Assays:
Type in all cases: cell-based, Human
[1] = tested on: MDA-MB-231 (breast); assay: SRB growth inhibition assay, MDA-MB-231; conditions: Homo sapiens, MDA-MB-231, 96 hours incubation, read-out: Inhibition of cell growth (IC50, μM) MDA-MB-231
Text: (§1) Cancer cells used in this study to determine the effect of tetrahydroisoquinolin-2-yl-(quinazolin-4-yl)methanone compounds were obtained from the following sources: Human OVCAR-3 (ovary), SK-MEL-28 (melanoma), MDA-MB-231 (breast), HeLa (cervix), PC3 (prostate), HepG2 (liver), A549 (lung), Caki-1 (kidney), HCT116 (colon) and PANC-1 (pancreas) from the American Type Culture Collection (ATCC) (Manassas, Va.); U251 (brain) from Riken (Japan); MKN-45 (stomach) from DSMZ (Germany). All cell lines except MDA-MB-231, HCT116, Caki-1 and PANC-1 were grown in RPMI1640 medium (Invitrogen, Carlsbad, Calif.) supplemented with 10% fetal bovine serum (“FBS”), 1 mM sodium pyruvate, 10 mM HEPES and 100 U/ml penicillin and 100 μg/ml streptomycin (“P/S”). MDA-MB-231, HCT116, Caki-1 and PANC-1 cells were maintained in Dulbecco's modified Eagle's medium (“DMEM”, Invitrogen) supplemented with 10% FBS, P/S, 10 mM HEPES and 2 mM L-glutamine. All cells were incubated at 37° C. under humidified 5% CO2.
(§2) The growth inhibition of the tetrahydroisoquinolin-2-yl-(quinazolin-4-yl)methanone compounds against a variety of human tumor cells was evaluated to study the relative importance of particular substituent groups on the compounds. The tetrahydroisoquinolin-2-yl-(quinazolin-4-yl)methanone compounds, prepared as described above, were tested with DMSO as a control.
(§3) The growth inhibition assay of representative tetrahydroisoquinolin-2-yl-(quinazolin-4-yl)methanone derivatives against human tumor cell lines was performed using the Sulforhodamine B (“SRB”) method (Skehan et al., J. National Cancer Institute, 82: 1107-1112 (1990)). Briefly, exponentially growing tumor cells were seeded into a 96-well plate at a density of 2-3×10^3 cells/well and treated with tetrahydroisoquinolin-2-yl-(quinazolin-4-yl)methanone compounds the next day. Triplicate wells were used for each treatment. The cells were incubated with the various compounds for 96 hours at 37° C. in a humidified 5% CO2 atmosphere. After 96-hour incubation, cells were fixed with 10% trichloroacetic acid (“TCA”), incubated for 1 hour at 4° C., and washed 3 times with tap water. Subsequently, cells were stained with 0.4% sulforhodamine B in 1% acetic acid for 30 minutes, washed 4 times with 1% acetic acid, and air-dried again After 5 minutes agitation in 10 mM Tris solution, the absorbance of each well was measured at 530 nm using Benchmark Plus Microplate reader (Bio-Rad Laboratories, Hercules, Calif.).
(§4) To translate the OD530 values into the number of live cells in each well, the OD530 values were compared to those on standard OD530-versus-cell number curves generated for each cell line. The percent survival was calculated using the formula: % Survival=live cell number [test]/live cell number [control]×100
(§5) The IC50 values were calculated by non-linear regression analysis.
(§6) The compounds were screened against at […] including PANC-1, MDA-MB-231, HCT116 and Caki-1, at approximately 1 μM concentration. The inhibition of cell growth (IC50, μM) of some tetrahydroisoquinolin-2-yl-(quinazolin-4-yl)methanone compounds are shown in Table 2.

[2] = tested on: HCT116 (colon); assay: SRB growth inhibition assay, HCT116; conditions: Homo sapiens, HCT-116, 96 hours incubation, read-out: Inhibition of cell growth (IC50, μM) HCT116
Text: as §1, §2, §3, §4, §5, §6

[3] = tested on: Caki-1 (kidney); assay: SRB growth inhibition assay, Caki-1; conditions: Homo sapiens, CAKI-1, 96 hours incubation, read-out: Inhibition of cell growth (IC50, μM) Caki-1
Text: as §1, §2, §3, §4, §5, §6

[4] = tested on: PANC-1 (pancreas); assay: SRB growth inhibition assay, PANC-1; conditions: Homo sapiens, PANC-1, 96 hours incubation, read-out: Inhibition of cell growth (IC50, μM) Panc-1
Text: as §1, §2, §3, §4, §5, §6

Compound | IC50 [1] | IC50 [2] | IC50 [4] | IC50 [3]
COc1ccc2c(c1O)CCN(C(=O)c1nc(-c3cccc(C(F)(F)F)c3)nc3ccccc13)C2 [Compound 52, 2-[[2-(3-(trifluoromethyl)phenyl)quinazolin-4-yl]carbonyl]-5-hydroxy-6-methoxy-1,2,3,4-tetrahydroisoquinoline] | 1.62 µM | 2.67 µM | 2.51 µM | 1.91 µM
COc1ccc2c(c1OC)CCN(C(=O)c1nc(-c3ccccc3)nc3ccccc13)C2 [Compound 19, 2-[[2-phenylquinazolin-4-yl]carbonyl]-5,6-dimethoxy-1,2,3,4-tetrahydroisoquinoline] | 0.84 µM | 1.08 µM | 1.06 µM | 0.85 µM
COc1ccc2c(c1O)CCN(C(=O)c1nc(-c3ccc(Cl)cc3)nc3ccccc13)C2 [Compound 27, 2-[[2-(4-chlorophenyl)quinazolin-4-yl]carbonyl]-5-hydroxy-6-methoxy-1,2,3,4-tetrahydroisoquinoline] | 0.54 µM | 0.5 µM | 0.42 µM | 0.46 µM
COc1ccc(-c2nc(C(=O)N3CCc4c(ccc(N(C)C)c4O)C3)c3ccccc3n2)cc1 [Compound 25, 2-[[2-(4-methoxylphenyl)quinazolin-4-yl]carbonyl]-5-hydroxy-6-dimethylamino-1,2,3,4-tetrahydroisoquinoline] | 2.53 µM | – | 1.77 µM | –
COc1ccc2c(c1OC)CCN(C(=O)c1nc(-c3cccc(C(F)(F)F)c3)nc3ccccc13)C2 [Compound 54, 2-[[2-(3-(trifluoromethyl)phenyl)quinazolin-4-yl]carbonyl]-5,6-dimethoxy-1,2,3,4-tetrahydroisoquinoline] | 3.44 µM | 1.65 µM | – | –

The next compounds have a lower IC50 [1] than those just listed; values first:

IC50 [1] | IC50 [2] | IC50 [4] | Compound | IC50 [3]
0.52 µM | 0.89 µM | 0.68 µM | CC(=O)Nc1ccc(-c2nc(C(=O)N3CCc4c(ccc(C)c4O)C3)c3ccccc3n2)cc1 [Compound 64, 2-[[2-(4-acetamidophenyl)quinazolin-4-yl]carbonyl]-5-hydroxy-6-methyl-1,2,3,4-tetrahydroisoquinoline] | 0.63 µM
0.43 µM | 0.52 µM | 0.47 µM | COc1ccc2c(c1O)CCN(C(=O)c1nc(-c3ccc(N(C)C)cc3)nc3ccccc13)C2 [Compound 32, 2-[[2-(4-(dimethylamino)phenyl)quinazolin-4-yl]carbonyl]-5-hydroxy-6-methoxy-1,2,3,4-tetrahydroisoquinoline] | 0.37 µM
0.38 µM | 0.47 µM | 0.4 µM | Cc1ccc2c(c1O)CCN(C(=O)c1nc(-c3ccc(F)cc3)nc3ccccc13)C2 [Compound 5, 2-[[2-(4-fluorophenyl)quinazolin-4-yl]carbonyl]-5-hydroxy-6-methyl-1,2,3,4-tetrahydroisoquinoline] | 0.36 µM
0.23 µM | 0.36 µM | 0.28 µM | COc1ccc2c(c1O)CCN(C(=O)c1nc(-c3ccc(N)cc3)nc3ccccc13)C2 [Compound 96, 2-[[2-(4-aminophenyl)quinazolin-4-yl]carbonyl]-5-hydroxy-6-methoxy-1,2,3,4-tetrahydroisoquinoline] | –
0.21 µM | 0.26 µM | 0.2 µM | Cc1ccc2c(c1O)CCN(C(=O)c1nc(-c3ccncn3)nc3ccccc13)C2 [Compound 73, 2-[[2-(4-pyrimidinyl)quinazolin-4-yl]carbonyl]-5-hydroxy-6-methyl-1,2,3,4-tetrahydroisoquinoline] | 0.19 µM
0.11 µM | 0.16 µM | 0.2 µM | COc1ccc2c(c1O)CCN(C(=O)c1nc(-c3ccc([N+](=O)[O-])cc3)nc3ccccc13)C2 [Compound 95, 2-[[2-(4-nitrophenyl)quinazolin-4-yl]carbonyl]-5-hydroxy-6-methoxy-1,2,3,4-tetrahydroisoquinoline] | –

Source: patent US9713615B2, “Tetrahydroisoquinolin-2-yl-(quinazolin-4-yl)methanone compounds” (Rexahn Pharmaceuticals, Inc., priority 2013, dated 2017)
